Reference: patent US20240325303A1, “KETOROLAC LIQUID COMPOSITION, PREPARATION METHOD THEREFOR, AND APPLICATION THEREOF” (SHANGHAI AURORA BIOTECHNOLOGY CO., LTD., priority 2021, published 2024)

What was measured:
[1] = compared with morphine; cited from earlier work
[2] = multiple tests; cited from earlier work
[3] = standard animal models for analgesic effect; cited from earlier work
human plasma protein = test: in vitro
Description: Samples at the dosing and receiving ends and at the preparation instant (0 h) were assayed by LC-MS/MS, and the plasma protein binding (PPB) rates and the recovery rates were calculated based on the assay results. The plasma samples and PBS samples prepared from the test samples and the commercially available controls were incubated at 37° C. for 6 h with oscillation (100 rpm) and then assayed for stability.

| recovery at 6 h, 300 ng/mL (human plasma protein) [%] | SMILES | relieving postsurgical pain [1] | anti-inflammatory activity compared with indomethacin, naproxen, phenylbutazone [2] | analgesic activity compared with indomethacin, naproxen, phenylbutazone [3] | analgesic activity relative to aspirin [3] [times] |
| --- | --- | --- | --- | --- | --- |
| – | O=C(c1ccccc1)c1ccc2n1CCC2C(=O)O (centres unmarked) [Ketorolac tromethamine] | superior to morphine | equivalent to or stronger than that of indomethacin, stronger than that of naproxen, and significantly better than that of phenylbutazone | stronger than that of indomethacin and naproxen, and equivalent to or better than that of phenylbutazone | 800 |
| 96.2 | CC(=O)CC(c1ccccc1)c1c(O)c2ccccc2oc1=O (centres unmarked) [Warfarin] | – | – | – | – |
